Reference: patent US20010056085A1, “Methods of using vesicant drug formulations” (priority 1996, published 2001)
Where two headings read alike, the source gives them in different places.

Assay: Half-life of ADR destruction by UVA light in the presence of test compounds (decrease in absorbance at 480 nm)
Type: physicochemical
[1] = UVA light, 100 μM test compound alone
[2] = UVA light, 100 μM test compound with 0.5 μM riboflavin

SMILES | Half-Life of ADR Destruction, 100 μM Test Compound [1] | Half-Life of ADR Destruction, 100 μM Test Compound and 0.5 μM Riboflavin [2] | further results
Nc1ncnc2c1ncn2[C@@H]1O[C@H](CO)[C@@H](O)[C@H]1O [Adenine-9-ribose (Adenosine), Adenine-9-ribose, reference compound] | 50.2 min | 43.0 min | 
Nc1ncnc2nc[nH]c12 [Adenine] | 50.2 min | 27.4 min | 
O=c1nc2[nH]c3ccccc3nc-2c(=O)[nH]1 [Alloxazine] | 2.21 min | 1.89 min | 
O=C1c2c(O)cccc2C([C@@H]2O[C@H](CO)[C@@H](O)[C@H](O)[C@H]2O)c2cc(CO)cc(O)c21 (some centres unmarked) [Aloin] | 75.3 min | 75.3 min | 
O=C1c2cccc(S(=O)(=O)O)c2C(=O)c2cccc(S(=O)(=O)O)c21 [Anthraquinone-1,5-disulfonic acid] | 30.1 min | 23.2 min | 
O=C(O)c1cc2c(cc1C(=O)O)C(=O)c1ccccc1C2=O [Anthraquinone-2,3-dicarboxylic acid] | 1.57 min |  | 
O=C1c2ccc(S(=O)(=O)O)cc2C(=O)c2ccc(S(=O)(=O)O)cc21 [Anthraquinone-2,6-disulfonic acid] | 0.275 min | 0.283 min | 
O=C1c2ccccc2C(=O)c2cnccc21 [Benz[γ]isoquinoline-5,10-dione] | <0.355 min | <0.261 min | 
O=S(O)c1ccccc1 [Benzenesulfinic acid] |  | 15.8 min | 
NS(=O)(=O)c1ccccc1 [Benzenesulfonamide] |  |  | Half-Life of ADR Destruction, 100 μM Test Compound and 0.5 μM Riboflavin: 50.2 min
O=S(=O)(O)c1ccccc1 [Benzenesulfonic acid] |  | 50.2 min | 
c1ccc2occc2c1 [Benzofuran] |  | 75.3 min | 
NC(=O)NC(=O)c1ccccc1 [Benzoylurea] | 43.0 min |  | 
OCC=Cc1ccccc1 [Cinnamyl Alcohol] | 43.0 min |  | 
c1ccc2cocc2c1 [Compound 2-Benzofuran, 2-Benzofuran] | 23.2 min |  | 
C1=CCNC1 [Compound 3-Pyrroline, 3-Pyrroline] |  | 43.0 min | 
O=c1ccoc2ccccc12 [Compound 4-Chromone, 4-Chromone] | 43.0 min |  | 
O=C1c2ccccc2-c2ccccc21 [Compound 9-Fluorenone, 9-Fluorenone] |  | 43.0 min | 
COc1cc(/C=C/CO)ccc1O[C@@H]1O[C@H](CO)[C@@H](O)[C@H](O)[C@H]1O [Coniferin] | 50.2 min | 15.1 min | 

SMILES | Half-Life of ADR Destruction, 100 μM Test Compound [1] | Half-Life of ADR Destruction, 100 μM Test Compound and 0.5 μM Riboflavin [2] | further results
O=C(O)c1cc2ccccc2oc1=O [Coumarin-3-carboxylic acid] | 23.2 min | 21.5 min | 
N[C@@H](CSSC[C@H](N)C(=O)O)C(=O)O [Cystine] |  | 150.5 min | 
Nc1cc[nH]c(=O)n1 [Cytosine] | 50.2 min | 43.0 min | 
C[S+](C)[O-] [Dimethylsulfoxide] |  |  | Half-Life of ADR Destruction, Test Compound (UVA light, dimethylsulfoxide 4% = 0.56 M alone): 33.5 min; Half-Life of ADR Destruction, Test Compound and 0.5 μM Riboflavin (UVA light, dimethylsulfoxide 4% = 0.56 M with 0.5 μM riboflavin): 27.4 min; Half-Life of ADR Destruction, Test Compound and 0.5 μM Riboflavin (UVA light, dimethylsulfoxide 40% - 5.6 M with 0.5 μM riboflavin): 10.4 min
CCc1cccc2c3c([nH]c12)C(CC)(CC(=O)O)OCC3 (centres unmarked) [Etodolac, reference compound] | 33.5 min | 6.41 min | 
O=C(O)CCC(=O)c1ccc(-c2ccccc2)cc1 [Fenbufen, reference compound] | 12.5 min | 12.0 min | 
CC(C(=O)O)c1ccc(-c2ccccc2)c(F)c1 (stereo not drawn) [Flurbiprofen, 4-Phenyl-3-Fluoro-α-Methyl Phenylacetic Acid, reference compound] | 75.3 min | 50.2 min | 
O=C(C(=O)c1ccco1)c1ccco1 [Furil] | 43.0 min | 33.5 min | 
C=C1C[C@]23C[C@@]1(O)CC[C@H]2[C@@]12C=C[C@H](O)[C@@](C)(C(=O)O1)[C@H]2[C@@H]3C(=O)O [Gibberellic acid] | 43.0 min |  | 
Nc1nc2c(ncn2[C@@H]2O[C@H](CO)[C@@H](O)[C@H]2O)c(=O)[nH]1 [Guanosine] | 75.3 min | 14.3 min | 
O=c1[nH]cnc2nc[nH]c12 [Hypoxanthine] |  | 43.0 min | 
c1ccc2c(c1)CCc1ccccc1N2 [Iminodibenzyl] |  | 23.2 min | 
O=C(O)c1cc2ccccc2[nH]1 [Indole-2-carboxylic acid] |  | 9.12 min | 
NC(=O)Cc1c[nH]c2ccccc12 [Indole-3-acetamide] |  | 11.2 min | 
O=C(O)Cc1c[nH]c2ccccc12 [Indole-3-acetic acid] | 27.4 ± 14.1 min | 3.75 ± 0.22 min | 
O=Cc1c[nH]c2ccccc12 [Indole-3-carboxaldehyde] |  | 30.1 min | 
O=C(O)CCc1c[nH]c2ccccc12 [Indole-3-propionic acid] |  | 9.5 ± 3.5 min | 
O=C(O)C(=O)Cc1c[nH]c2ccccc12 [Indole-3-pyruvic acid] |  | 6.74 min | 
O=C(O)c1ccc2[nH]ccc2c1 [Indole-5-carboxylic acid] |  | 12.0 min | 

SMILES | Half-Life of ADR Destruction, 100 μM Test Compound [1] | Half-Life of ADR Destruction, 100 μM Test Compound and 0.5 μM Riboflavin [2] | further results
c1ccc2c(c1)CCN2 [Indoline] |  |  | Half-Life of ADR Destruction, 100 μM Test Compound and 0.5 μM Riboflavin: 75.3 min
COc1ccc2c(c1)c(CC(=O)O)c(C)n2C(=O)c1ccc(Cl)cc1 [Indomethacin, 1-(4-Chlorobenzoyl)-5-Methoxy-2-Methyl-indole-3-acetic acid, reference compound] | 100.3 min |  | 
CC(C(=O)O)c1ccc(N2Cc3ccccc3C2=O)cc1 (stereo not drawn) [Indoprofen, 4-(1-Isoindolinone)-α-Methyl Phenylacetic Acid, reference compound] | 75.3 min | 25.1 min | 
Cc1cc(NC(=O)C2=C(O)c3ccccc3S(=O)(=O)N2C)no1 [Isoxicam, reference compound] | 75.3 min |  | 
O=C(c1ccccc1)c1ccc2n1CCC2C(=O)O (centres unmarked) [Ketorlac, reference compound] |  |  | Half-Life of ADR Destruction, 100 μM Test Compound: 4.07 min; Half-Life of ADR Destruction, 100 μM Test Compound and 0.5 μM Riboflavin: 3.81 min
Nc1ccccc1C(=O)CC(N)C(=O)O (centres unmarked) [Kynurenine] |  | 75.3 min | 
O=c1[nH]c(=O)c2nccnc2[nH]1 [Lumazine] | 5.79 min | 3.31 min | 
Cc1cc2nc3[nH]c(=O)[nH]c(=O)c3nc2cc1C [Lumichrome] |  |  | Half-Life of ADR Destruction, 100 μM Test Compound: 6.02 min; Half-Life of ADR Destruction, 100 μM Test Compound and 0.5 μM Riboflavin: 3.86 min
COc1ccc(C(=O)CCC(=O)O)c2ccccc12 [Menbutone, 4-Methoxy-γ-oxo-1-naphthalenebutyric acid, reference compound] | 2.21 min | 1.37 min | 
COC(=O)c1ccc(N)cc1 [Methyl-4-aminobenzoate] |  | 10.8 min | 
Cn1ccc2ccccc21 [N-ω-methyl-indole] |  | 20.1 min | 
COc1ccc2cc(CCC(C)=O)ccc2c1 [Nabumetone, 4-(6-Methoxy-2-naphthyl)-butan-2-one, reference compound] | 27.4 min | 8.6 min | Half-Life of ADR Destruction, 100 μM Test Compound and 0.5 μM Riboflavin (UVA light, 100 μM test compound with 0.5 μM riboflavin, listed as 4-(6-Methoxy-2-naphthyl)-butan-2-one (Nabumetone)): 8.60 min
O=C(O)c1cccc2ccccc12 [Naphthalene-1-carboxylic acid] | 50.2 min | 43.0 min | 
O=C(O)Cc1ccc2ccccc2c1 [Naphthalene-2-acetic acid] | 75.3 min | 30.1 min | 
O=C(O)c1ccc2ccccc2c1 [Naphthalene-2-carboxylic acid] | 50.2 min | 43.0 min | 
OCCc1ccccc1 [Phenylethyl Alcohol] | 43.0 min |  | 
NC(C(=O)O)c1ccccc1 (centres unmarked) [Phenylglycine] |  | 67.8 ± 10.7 min | 
CN1C(C(=O)Nc2ccccn2)=C(O)c2ccccc2S1(=O)=O [Piroxicam, reference compound] | 100.3 min | 10.4 min | 
CCC(=O)c1ccccc1 [Propriophenone] |  |  | Half-Life of ADR Destruction, 100 μM Test Compound: 43.0 min
